From ChEMBL document CHEMBL3045894, “GLUTATHIONE SYNTHESIS IN FILARIAL WORMS: AN ATTRACTIVE TARGET FOR THE DESIGN AND SYNTHESIS OF NEW ANTIFILARIALS” (Med Chem Res, 2004)
Active and inactive are the calls of the source. The rule behind the calls is not given here.

Legend:
[1] = molecular target: T1, Glutamate--cysteine ligase (Onchocerca volvulus) (UniProt Q9NFN6); experiment: Inhibition of Setaria cervi glutamate cysteine ligase at 0.25 to 200 uM
T1 sequence (whole entry): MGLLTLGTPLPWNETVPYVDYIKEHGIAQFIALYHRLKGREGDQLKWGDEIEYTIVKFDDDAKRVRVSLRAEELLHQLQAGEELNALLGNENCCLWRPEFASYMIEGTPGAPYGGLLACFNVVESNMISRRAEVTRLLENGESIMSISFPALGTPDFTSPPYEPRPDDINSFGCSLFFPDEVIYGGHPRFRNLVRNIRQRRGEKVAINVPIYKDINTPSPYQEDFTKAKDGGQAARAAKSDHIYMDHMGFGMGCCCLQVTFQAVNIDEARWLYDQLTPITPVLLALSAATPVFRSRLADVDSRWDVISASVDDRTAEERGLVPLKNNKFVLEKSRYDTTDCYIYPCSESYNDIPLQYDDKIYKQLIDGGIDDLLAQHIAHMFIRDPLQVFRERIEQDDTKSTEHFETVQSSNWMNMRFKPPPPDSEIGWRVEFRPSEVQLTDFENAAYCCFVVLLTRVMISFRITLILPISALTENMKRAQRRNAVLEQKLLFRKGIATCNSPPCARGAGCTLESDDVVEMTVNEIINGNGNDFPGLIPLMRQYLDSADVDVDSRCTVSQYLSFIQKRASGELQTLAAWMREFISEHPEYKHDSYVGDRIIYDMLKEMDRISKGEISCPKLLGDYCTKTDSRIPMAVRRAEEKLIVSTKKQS

[2] = molecular target: T2, Glutathione reductase, mitochondrial (Mus musculus) (UniProt P47791); experiment: Inhibition of Mus musculus (mouse) glutathione reductase isolated from liver at 200 uM
T2 sequence (whole entry): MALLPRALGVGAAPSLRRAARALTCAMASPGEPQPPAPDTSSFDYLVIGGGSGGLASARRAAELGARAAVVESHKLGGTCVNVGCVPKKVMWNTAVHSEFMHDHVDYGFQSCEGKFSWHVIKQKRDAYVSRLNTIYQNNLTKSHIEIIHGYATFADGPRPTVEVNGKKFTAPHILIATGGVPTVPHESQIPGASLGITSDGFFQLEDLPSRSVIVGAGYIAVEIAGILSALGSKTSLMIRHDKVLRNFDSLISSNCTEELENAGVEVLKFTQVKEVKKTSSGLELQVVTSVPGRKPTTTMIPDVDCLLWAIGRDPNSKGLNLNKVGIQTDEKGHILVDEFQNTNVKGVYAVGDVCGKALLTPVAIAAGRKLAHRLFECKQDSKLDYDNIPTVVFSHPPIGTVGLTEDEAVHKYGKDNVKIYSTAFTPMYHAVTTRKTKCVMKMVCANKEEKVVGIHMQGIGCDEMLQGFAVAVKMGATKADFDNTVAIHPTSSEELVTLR

[3] = molecular target: T3, Glutamate--cysteine ligase catalytic subunit (Mus musculus) (UniProt P97494); experiment: Inhibition of Mus musculus (mouse) glutamate cysteine ligase isolated from liver at 200 uM
T3 sequence (whole entry): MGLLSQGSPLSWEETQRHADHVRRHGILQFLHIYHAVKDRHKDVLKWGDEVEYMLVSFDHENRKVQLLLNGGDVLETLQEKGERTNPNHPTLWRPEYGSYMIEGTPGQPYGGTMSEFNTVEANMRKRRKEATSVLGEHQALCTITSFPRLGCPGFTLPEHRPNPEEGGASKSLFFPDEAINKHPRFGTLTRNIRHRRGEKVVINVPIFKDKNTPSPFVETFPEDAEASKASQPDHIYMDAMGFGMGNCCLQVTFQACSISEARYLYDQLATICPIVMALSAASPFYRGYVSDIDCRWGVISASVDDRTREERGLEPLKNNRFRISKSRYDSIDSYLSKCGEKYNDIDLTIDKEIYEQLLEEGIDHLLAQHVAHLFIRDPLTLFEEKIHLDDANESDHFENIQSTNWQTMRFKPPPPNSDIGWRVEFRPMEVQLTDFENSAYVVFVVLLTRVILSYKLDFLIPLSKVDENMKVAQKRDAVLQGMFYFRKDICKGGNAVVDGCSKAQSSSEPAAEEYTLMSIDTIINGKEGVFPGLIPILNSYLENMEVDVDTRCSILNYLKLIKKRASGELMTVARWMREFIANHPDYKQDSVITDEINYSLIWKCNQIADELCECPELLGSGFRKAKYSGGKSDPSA

[4] = molecular target: T4, Probable glutathione reductase 2 (Caenorhabditis elegans) (UniProt P30635); experiment: Inhibition of Setaria cervi glutathione reductase at 2 to 200 uM
T4 sequence (whole entry): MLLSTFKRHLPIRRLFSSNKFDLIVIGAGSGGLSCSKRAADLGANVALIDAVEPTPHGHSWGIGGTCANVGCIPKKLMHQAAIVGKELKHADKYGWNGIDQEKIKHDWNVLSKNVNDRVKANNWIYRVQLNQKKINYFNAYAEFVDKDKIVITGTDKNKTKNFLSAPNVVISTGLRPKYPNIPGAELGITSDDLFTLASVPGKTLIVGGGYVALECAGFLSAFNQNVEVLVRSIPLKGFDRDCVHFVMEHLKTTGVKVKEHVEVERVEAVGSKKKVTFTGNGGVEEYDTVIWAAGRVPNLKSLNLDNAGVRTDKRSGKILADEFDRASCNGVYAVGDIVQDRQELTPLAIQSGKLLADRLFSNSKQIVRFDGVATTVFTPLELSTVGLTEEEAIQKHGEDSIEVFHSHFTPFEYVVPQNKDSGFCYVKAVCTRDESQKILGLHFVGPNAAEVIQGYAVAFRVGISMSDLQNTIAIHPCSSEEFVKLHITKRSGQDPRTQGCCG

## NCCSSCCN
[1]
  inhibition: 19%

## CCCCCCCCCCCCCCCCNC(CC(=O)NO)[C@H]1O[C@@H]2OC(C)(C)O[C@@H]2[C@H]1OC (stereo partly drawn)
[2]
  inhibition: 71%

## CO[C@@H]1[C@H]2OC(C)(C)O[C@H]2O[C@@H]1[C@@H]1CC(=O)N(Cc2ccccc2)C(=O)N1Cc1ccccc1
[3]
  inhibition: inactive

## CCCCCCCN[C@@H](CC(=O)OCC)[C@@H]1O[C@@H]2OC(C)(C)O[C@@H]2[C@H]1OC
[2]
  inhibition: inactive

## CCOC(=O)CC([C@H]1O[C@@H]2OC(C)(C)O[C@@H]2[C@H]1OC)N(CCC(C)CC(C)C)C(=O)NCc1ccccc1 (stereo partly drawn)
[2]
  inhibition: inactive

## COc1ccc(CN2C(=O)N(c3ccc(C(C)=O)cc3)C(=O)C[C@H]2[C@H]2O[C@@H]3OC(C)(C)O[C@@H]3[C@H]2OCc2ccccc2)cc1
[2]
  inhibition: inactive

## CO[C@@H]1[C@H]2OC(C)(C)O[C@H]2O[C@@H]1C1CC(=O)N(Cc2ccccc2)C(=O)N1CCC(C)CC(C)C (stereo partly drawn)
[2]
  inhibition: inactive

## CCOC(=O)CC([C@H]1O[C@@H]2OC(C)(C)O[C@@H]2[C@H]1OC)N1CCC[C@H]1C(=O)OCC1c2ccccc2-c2ccccc21 (stereo partly drawn)
[2]
  inhibition: inactive

## CCOC(=O)CC(Nc1ccco1)[C@H]1O[C@@H]2OC(C)(C)O[C@@H]2[C@H]1OC (stereo partly drawn)
[2]
  inhibition: inactive

## CC1(C)O[C@H]2O[C@H](C(CC(=O)NO)NCc3ccccc3)[C@H](OCc3ccccc3)[C@H]2O1 (stereo partly drawn)
[2]
  inhibition: inactive

## CCCCCCCNC(CC(=O)O)[C@@H]1O[C@@H]2OC(C)(C)O[C@@H]2[C@H]1OC (stereo partly drawn)
[2]
  inhibition: inactive

## CCOC(=O)C[C@H](C[C@H]1O[C@@H]2OC(C)(C)O[C@@H]2[C@H]1OC)NCc1ccccc1O
[2]
  inhibition: inactive

## CN(C)c1ccc2nc3ccc(=[N+](C)C)cc-3sc2c1
[4]
  inhibition: 24%

## CC1(C)O[C@H]2O[C@H]([C@@H]3CC(=O)N(Cc4ccccc4)C(=O)N3Cc3ccccc3)[C@H](OCc3ccccc3)[C@H]2O1
[2]
  inhibition: inactive

## CCCCCCCCCCCCNC(CC(=O)NO)[C@H]1O[C@@H]2OC(C)(C)O[C@@H]2[C@H]1OCc1ccccc1 (stereo partly drawn)
[2]
  inhibition: inactive

## CO[C@@H]1[C@H]2OC(C)(C)O[C@H]2O[C@H]1C(CC(=O)O)NCCC(C)CC(C)C (stereo partly drawn)
[2]
  inhibition: inactive

## CCCCCCCNC(CC(=O)NO)[C@H]1O[C@@H]2OC(C)(C)O[C@@H]2[C@H]1OCc1ccccc1 (stereo partly drawn)
[2]
  inhibition: inactive

## CO[C@@H]1[C@H]2OC(C)(C)O[C@H]2O[C@@H]1[C@H](CC(N)=O)N(Cc1ccccc1)C(=O)Nc1cccc(C(C)=O)c1
[3]
  inhibition: 18%

## CCCc1nccn1C(CC(=O)OCC)[C@H]1O[C@@H]2OC(C)(C)O[C@@H]2[C@H]1OC (stereo partly drawn)
[2]
  inhibition: inactive

## CCOC(=O)C[C@@H](Nc1ccccc1O)[C@H]1O[C@@H]2OC(C)(C)O[C@@H]2[C@H]1OC
[2]
  inhibition: inactive

## CC1(C)O[C@H]2O[C@H](C(CC(=O)NO)N3CCCCC3)[C@H](OCc3ccccc3)[C@H]2O1 (stereo partly drawn)
[2]
  inhibition: inactive

## CCOC(=O)CC(Nc1ccco1)[C@H]1O[C@@H]2OC(C)(C)O[C@@H]2[C@H]1OCc1ccccc1 (stereo partly drawn)
[2]
  inhibition: inactive

## CC(=O)c1cccc(N2C(=O)[C@H](CC(C)C)N(C[C@H]3O[C@@H]4OC(C)(C)O[C@@H]4[C@H]3OCc3ccccc3)C2=O)c1
[2]
  inhibition: inactive
